Test results taken from US20240246968A1, “SMALL MOLECULE INHIBITORS OF KRAS G12C MUTANT” (Merck Sharp & Dohme LLC, priority 2021, published 2024).

Experiments:
[1] = molecular target: T1, interaction between recombinant K-Ras4B G12C mutant protein and cRAF RAS-binding domain (cRAF-RBD) (Homo sapiens, UniProt P01116, G12C); experiment: Inhibitory activity on interaction between KRAS G12C and cRAF (Alpha technology); format: biochemical; settings: GMPPNP-bound KRAS G12C incubated with compound at 25° C. for 1 hour, then cRAF-RBD; Alpha signal
T1 construct: made in house; host or cells: E. coli
Method in brief: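 GMPPNP-loaded His-tagged KRAS G12C (aa 1-169, E. coli) preincubated with compound 1 h at 25° C in Tris pH 7.5, 100 mM NaCl, 1 mM MgCl2, TCEP, 0.1% Tween 20; cRAF-RBD (aa 50-132) added, 1.5 h RT, Alpha signal read. DMSO = 0%, GDP-bound KRAS = 100% inhibition; IC50 from dose titration fit.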

MIA PaCa-2 cells = experiment: Growth inhibition activity on KRAS-G12C mutant cell line (MIA PaCa-2), CellTiter-Glo 3D; format: cell-based, human; settings: MIA PaCa-2, 3-day culture with compound
Method in brief: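 Cells in RPMI1640 with 10% FBS were seeded in U-bottom plates and cultured 1 day at 37 °C, 5% CO2, then exposed to compound (0.2% DMSO final) for 3 more days. Viability read by CellTiter-Glo 3D luminescence; IC50 from growth inhibition relative to untreated wells.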

[2] = molecular target: Gppcp-bound recombinant K-Ras4B G12C mutant protein (amino acids 1-169, C51S/C80L/C118S) (Homo sapiens, UniProt P01116, C118S/C51S/C80L/G12C); experiment: KRASG12C binding assay (LC-MS, compound binding rate); settings: test compound final concentration 0.5 μM, 25° C., 1 hour
Method in brief: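 Gppcp-bound K-Ras4B G12C (1-169; C51S/C80L/C118S), 50 nM in TBS with 0.1 mM TCEP, 0.25 mM MgCl2, 50 μM Gppcp, exposed to compound at 0.5 μM final for 1 h at 25 °C. Quenched with formic acid and analysed by intact-protein ESI LC-MS. Binding rate is the mono-adduct signal over total KRAS signal; graded A (≥80%) to E (<20%).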

| SMILES | IC50 [1] | IC50 (MIA PaCa-2 cells) | binding rate [2] | IC50 (MIA PaCa-2 cells; Homo sapiens, MIA PaCa-2, 72 h) |
| --- | --- | --- | --- | --- |
| Cc1cc2c(nc(C)n2C)c(Cl)c1-c1cccn2c(C(=O)c3cc(F)c(NC(=O)/C=C/CNC(C)(C)C)c(F)c3)ccc12 (single isomer, unassigned) [Example 18-1, (E)-4-(tert-butylamino)-N-(4-(8-(4-chloro-1,2,6-trimethyl-1H-benzo[d]imidazol-5-yl)indolizine-3-carbonyl)-2,6-difluorophenyl)but-2-enamide] | 29 nM | 29 nM | A (A binding rate of 80% or more is rated “A”) | – |
| COc1cc2c(ncn2C)c(Cl)c1-c1cccn2c(C(=O)c3cc(F)c(NC(=O)/C=C/CNC(C)(C)C)c(F)c3)ccc12 (single isomer, unassigned) [Example 14-1, (E)-4-(tert-butylamino)-N-(4-(8-(4-chloro-6-methoxy-1-methyl-1H-benzo[d]imidazol-5-yl)indolizine-3-carbonyl)-2,6-difluorophenyl)but-2-enamide] | 57 nM | – | A (A binding rate of 80% or more is rated “A”) | 28 nM |
| CCc1nc2c(-c3cc4nc(C)n(C)c4cc3C(F)(F)F)cccn2c1C(=O)c1cc(F)c(NC(=O)/C=C/CN[C@H]2CC[C@H](OC)CC2)c(F)c1 [Example 99, (E)-N-(4-(8-(1,2-dimethyl-6-(trifluoromethyl)-1H-benzo[d]imidazol-5-yl)-2-ethylimidazo[1,2-a]pyridine-3-carbonyl)-2,6-difluorophenyl)-4-(((1r,4r)-4-methoxycyclohexyl)amino)but-2-enamide] | 170 nM | – | A (A binding rate of 80% or more is rated “A”) | 170 nM |
| CO[C@H]1CC[C@H](NC/C=C/C(=O)Nc2c(F)cc(C(=O)c3ccc4c(-c5c(C)cc6c(ncn6C)c5Cl)cccn34)cc2F)CC1 (single isomer, unassigned) [Example 12-1, (E)-N-(4-(8-(4-chloro-1,6-dimethyl-1H-benzo[d]imidazol-5-yl)indolizine-3-carbonyl)-2,6-difluorophenyl)-4-(((1r,4r)-4-methoxycyclohexyl)amino)but-2-enamide] | 29 nM | 79 nM | A (A binding rate of 80% or more is rated “A”) | – |
| Cc1nc2cc(-c3cccn4c(C(=O)c5cc(F)c(NC(=O)/C=C/CNC6CCCCC6O)c(F)c5)ccc34)c(C(F)(F)F)cc2n1C (stereo not drawn) [Example 63, (E)-N-(4-(8-(1,2-dimethyl-6-(trifluoromethyl)-1H-benzo[d]imidazol-5-yl)indolizine-3-carbonyl)-2,6-difluorophenyl)-4-((2-hydroxycyclohexyl)amino)but-2-enamide] | 71 nM | – | A (A binding rate of 80% or more is rated “A”) | 400 nM |
| Cc1nc2cc(-c3cccn4c(C(=O)c5cc(F)c(NC(=O)/C=C/CNC6(CO)CCCCC6)c(F)c5)ccc34)c(C(F)(F)F)cc2n1C [Example 69, (E)-N-(4-(8-(1,2-dimethyl-6-(trifluoromethyl)-1H-benzo[d]imidazol-5-yl)indolizine-3-carbonyl)-2,6-difluorophenyl)-4-((1-(hydroxymethyl)cyclohexyl)amino)but-2-enamide] | 87 nM | – | A (A binding rate of 80% or more is rated “A”) | 340 nM |
| COc1c(-c2cccn3c(C(=O)c4cc(F)c(NC(=O)/C=C/CN[C@H]5CC[C@H](OC)CC5)c(F)c4)ccc23)c(C)cc2c1nc(C)n2C (single isomer, unassigned) [Example 39-2, (E)-N-(2,6-difluoro-4-(8-(4-methoxy-1,2,6-trimethyl-1H-benzo[d]imidazol-5-yl)indolizine-3-carbonyl)phenyl)-4-(((1r,4r)-4-methoxycyclohexyl)amino)but-2-enamide] | 32 nM | 44 nM | A (A binding rate of 80% or more is rated “A”) | – |
